Data reported in US20060140991A1, “Pharmaceutical preparations having an improved solubility” (AJINOMOTO CO. INC, priority 2003, published 2006).
≈ marks a conversion by molar mass, not a printed value.

How the values were obtained:
[1] = Solubilization by fixing the micelle structure: drug concentration in the clear neutral liquid; format: physicochemical; details: for clear liquid obtained: no alkali; for clear liquid obtained / concentration of AP-1067 in clear neutral liquid containing solubilized drug: 45° C.; for concentration of AP-1067 in clear neutral liquid containing solubilized drug: pH adjusted to neutral
Procedure: (§1) About 10 mg of AP-1067 was dispersed into 1 mL of water. An aqueous solution of sodium hydroxide was added thereto to adjust the solution to pH=13 or above. The suspension was heated up to 45° C. to obtain a clear alkali aqueous liquid containing solubilized AP-1067 wherein a micelle of AP-1067 was formed. (AP-1067 concentration: about 10 mg/mL)
(§2) 40 mg of sodium dodecyl sulfate (SDS) was added to the alkali aqueous liquid to fix the formed micelle structure. Then, an aqueous solution of hydrochloric acid was added dropwise thereto and its pH was adjusted to neutral to obtain a clear neutral liquid containing slubilized AP-1067 wherein the micelle of AP-1067 existed in the fixed manner. The concentration of AP-1067 at that time was 9.1 mg/mL.
as §1, with “solution of” for “liquid containing solubilized”
as §2, with “100 mg” for “40 mg”, “of Polysorbate 80” for “of sodium dodecyl sulfate (SDS)”, “aqueous solution” for “aqueous liquid”, “containing solubilized” for “containing slubilized”, “was 10.3” for “was 9.1”
10 mg of AP-1067 and 40 mg of SDS were dispersed into 1 mL of water. The suspension was heated up to 45° C., and the ultrasonic treatment was conducted for 1.5 hours.
10 mg of AP-1067 and 100 mg of Polysorbate 80 were dispersed into 1 mL of water. The suspension was heated up to 45° C., and the ultrasonic treatment was conducted for 1.5 hours.
10 mg of APC0576 and 83 mg of cetylpyridinium chloride monohydrate were dispersed and dissolved into 1 mL of an aqueous solution of 1.5 mol/L hydrochloric acid. The suspension was heated up to 50° C., and the ultrasonic treatment was conducted thereto to obtain a clear acidic aqueous liquid containing solubilized APC0576 wherein a micelle of the poorly-soluble drug APC0576 existed in the fixed manner. (APC0576 concentration: about 10 mg/mL)
An aqueous solution of 10 mol/L sodium hydroxide was added dropwise to the acidic aqueous liquid to adjust its pH to nearly neutral to obtain about 7 mg/mL of a clear liquid containing solubilized APC0576 wherein the micelle of APC0576 existed in the fixed manner. (see FIG. 3)
10 mg of APC0576 and 85 mg of cetylpyridinium chloride monohydrate were dissolved into 1 mL of water. The suspension was heated up to 50° C., and the ultrasonic treatment was conducted for 1.5 hours. […] (see FIG. 3)

[2] = Solubility in water at room temperature

Row | SMILES | clear liquid obtained ([1]; Comparative Example 1: 10 mg drug and 40 mg SDS in 1 mL water, ultrasonic 1.5 hours) | clear liquid obtained ([1]; Comparative Example 2: 10 mg drug and 100 mg Polysorbate 80 in 1 mL water, ultrasonic 1.5 hours) | concentration of AP-1067 in clear neutral liquid containing solubilized drug ([1]; Example 1: micelle formed at pH=13 or above, fixed with 40 mg SDS) | concentration of AP-1067 in clear neutral liquid containing solubilized drug ([1]; Example 2: micelle formed at pH=13 or above, fixed with 100 mg Polysorbate 80) | solubility [2] | clear solubilized solution obtained ([1]; Comparative Example 3: 10 mg drug and 85 mg cetylpyridinium chloride monohydrate in 1 mL water, no acid, 50° C., ultrasonic 1.5 hours) | concentration of clear liquid containing solubilized APC0576 ([1]; Example 3: 83 mg cetylpyridinium chloride monohydrate, 1.5 mol/L hydrochloric acid, 50° C., ultrasonic, pH adjusted to nearly neutral)
1 | Cl.NS(=O)(=O)c1ccc(/C=C/CN2CCC(=C3c4ccccc4C=Cc4ccccc43)CC2)cc1 [AP-1067, (4-(5H-dibenzo[a,d]cyclohepten-5-ylidene)-1-[3-[4-sulfamoylphenyl]-2(E)-propenyl]-piperidine, monohydro-chloride)] | could not be obtained | could not be obtained | 9100 µg/mL | 10300 µg/mL | ~30 µg/mL | – | –
2 | CC1(C)C[C@@H]1C(=O)Nc1ccc(Oc2ccc(NC(=O)[C@H]3CC3(C)C)cn2)cc1 [APC0576, 5-(((S)-2,2-dimethyl-cyclopropancarbonyl)amino)-2-(4-(((S)-2,2-dimethylcyclopropancarbonyl)amino)phenoxy)pyridine] | – | – | – | – | ~1.6 µg/mL (≈ 4.07 µM) | could not be obtained | about 7 mg/mL
